Laboratory results taken from US20040038985A1, “Crystal forms of 1- [6-chloro-5-(trifluoromethly) -2-pyridinyl] piperazine hydrochloride” (priority 2000, published 2004).

Tests used:
[1] = Stability of crystal forms A and B in admixture with excipients (HPLC content after storage); type: physicochemical; settings: for content of Org 12962 remaining after storage, percentage of the initial amount: 14 days
Description: To each aliquot an excipient mentioned in Table II was added, followed by 10 μl of water, after which the suspensions were thoroughly mixed.
Aliquots of Org 12962 (5-10 mg) in crystal form B (100% form B) were weighed into roundbottomed tubes. To each aliquot an excipient mentioned in Table II was added, followed by 100 μl of water. Glass beads (250-300 mg) were added to each tube, after which the samples were thoroughly mixed for 1 minute. The residual water was evaporated in vacuo at room temperature. The tubes were stored in the dark for 14 days at either 20° C. or at 60° C. The samples were dissolved in 20.0 ml of a 70:30 mixture of 25 mM phosphate pH 2.6 buffer and acetonitrile. Dissolution was effected by keeping the tubes in a sonifier for 20 minutes.
Quantitative analysis of the amount of Org 12962 per tube was done by high performance liquid chromatography (hplc) using either of the following validated methods: (1) using a Symmetry Shield Reverse Phase RP 18 column (150×4.6 mm), which was operated at 40° C., using a flow rate of 1.0 ml/min, and as eluent a 69:31 (v/v) mixture of 25 mM phosphate buffer pH 2.6 buffer, also containing 15 mM octanesulphonic acid, and acetonitrile, or (2) using a Lichrospher 60 RP Select B column (125×4.0 mm), which was operated at ambient temperature, using a flow rate of 1.5 ml/min, and as eluent a 55:45 (v/v) mixture of methanol and water, also containing 5 mM octanesulphonic acid. The content of Org 12962 remaining in the samples after storage is given in Table II as the percentage (%) of the initial amount.

[2] = Thermodynamic stability / interconversion of crystal forms of Org 12962; type: physicochemical; settings: solid crystal forms of Org 12962 compared
[3] = admixture with Cornstarch (10 mg per 5.0 mg Org 12962), 20° C./dark
[4] = admixture with Cornstarch (10 mg per 5.0 mg Org 12962), 60° C./dark
[5] = admixture with HPC (2 mg per 5.0 mg Org 12962), 20° C./dark
[6] = admixture with HPMC (1.3 mg per 5.0 mg Org 12962), 20° C./dark
[7] = admixture with HPMC (1.3 mg per 5.0 mg Org 12962), 60° C./dark
[8] = admixture with Lactose (80 mg per 5.0 mg Org 12962), 20° C./dark
[9] = admixture with Lactose (80 mg per 5.0 mg Org 12962), 60° C./dark
[10] = admixture with Mg-stearate (0.5 mg per 5.0 mg Org 12962), 20° C./dark
[11] = admixture with Mg-stearate (0.5 mg per 5.0 mg Org 12962), 60° C./dark
[12] = admixture with PEG 400 (0.3 mg per 5.0 mg Org 12962), 20° C./dark
[13] = admixture with PEG 400 (0.3 mg per 5.0 mg Org 12962), 60° C./dark
[14] = admixture with Primojel (4 mg per 5.0 mg Org 12962), 20° C./dark
[15] = admixture with Primojel (4 mg per 5.0 mg Org 12962), 60° C./dark
[16] = admixture with Talc (0.3 mg per 5.0 mg Org 12962), 20° C./dark
[17] = admixture with Talc (0.3 mg per 5.0 mg Org 12962), 60° C./dark
[18] = admixture with Titanium dioxide (0.2 mg per 5.0 mg Org 12962), 20° C./dark
[19] = admixture with Titanium dioxide (0.2 mg per 5.0 mg Org 12962), 60° C./dark

SMILES | content of Org 12962 remaining after storage, percentage of the initial amount [1, 3] | content of Org 12962 remaining after storage, percentage of the initial amount [1, 4] | content of Org 12962 remaining after storage, percentage of the initial amount [1, 5] | content of Org 12962 remaining after storage, percentage of the initial amount [1, 6] | content of Org 12962 remaining after storage, percentage of the initial amount [1, 7] | content of Org 12962 remaining after storage, percentage of the initial amount [1, 8] | content of Org 12962 remaining after storage, percentage of the initial amount [1, 9] | content of Org 12962 remaining after storage, percentage of the initial amount [1, 10] | content of Org 12962 remaining after storage, percentage of the initial amount [1, 11] | content of Org 12962 remaining after storage, percentage of the initial amount [1, 12] | content of Org 12962 remaining after storage, percentage of the initial amount [1, 13] | content of Org 12962 remaining after storage, percentage of the initial amount [1, 14] | content of Org 12962 remaining after storage, percentage of the initial amount [1, 15] | content of Org 12962 remaining after storage, percentage of the initial amount [1, 16] | content of Org 12962 remaining after storage, percentage of the initial amount [1, 17] | content of Org 12962 remaining after storage, percentage of the initial amount [1, 18] | content of Org 12962 remaining after storage, percentage of the initial amount [1, 19] | further results
Cl.FC(F)(F)c1ccc(N2CCNCC2)nc1Cl [I, 1-[6-Chloro-5-(trifluoromethyl)-2-pyridinyl]piperazine.hydrochloride] | 100.0% | 82.6% | 98.0% | 95.0% | 91.8% | 94.5% | 91.2% | 97.9% | 93.8% | 96.5% | 92.5% | 95.0% | 94.6% | 99.2% | 94.5% | 96.0% | 97.5% | –
Cl.FC(F)(F)c1ccc(N2CCNCC2)nc1Cl [II, 1-[6-Chloro-5-(trifluoromethyl)-2-pyridinyl]piperazine.hydrochloride] | 100.1% | 97.9% | 100.0% | 100.0% | 97.8% | 99.6% | 97.4% | 99.9% | 97.9% | 99.8% | 96.3% | 100.0% | 96.0% | 99.9% | 100.1% | 99.8% | 92.9% | thermodynamic stability of the crystal form ([2]; listed as crystal form B): thermodynamically most stable form; content of Org 12962 remaining after storage, percentage of the initial amount ([1]; admixture with HPC (2 mg per 5.0 mg Org 12962), 60° C./dark): 96.5%; stability in admixture with pharmaceutical excipients, compared with crystal form A ([1]; stored in the dark, especially notable at 60° C. with lactose and cornstarch): more stable
Cl.FC(F)(F)c1ccc(N2CCNCC2)nc1Cl [form C, 1-[6-Chloro-5-(trifluoromethyl)-2-pyridinyl]piperazine.hydrochloride] | – | – | – | – | – | – | – | – | – | – | – | – | – | – | – | – | – | thermodynamic stability of the crystal form [2]: spontaneously converts to form B, even at −20 °C
